Source: article PMC11062922 (Nature Chemical Biology, 2023)
Values belong to the compound of their own block, whether it stands above or below them.

What was measured:
[1] = tested on: ERBB2; details: ERBB2 (2nd target, 2nd value); ref chemicalprobes.org; cited from earlier work
[2] = molecular target: T1, PRKCB (Homo sapiens, UniProt P05771); assay: Kinobeads full dose-response competition binding: PRKCB; details: Gene Name PRKCB
T1 construct: endogenous in cells

[3] = molecular target: T2, endogenous kinases and other proteins enriched by Kinobeads from mixed lysates of K-562, COLO-205, MV-4-11, SK-N-BE(2) and OVCAR-8 (Homo sapiens, UniProt P49760); assay: Kinobeads competition binding profiling, two doses (100 nM and 1 µM); details: CLK2;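 note: inhibitor preincubated 45 min at 4 °C in cell lysate, then bead pulldown. Bound protein quantified by label-free mass spectrometry relative to DMSO vehicle control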
T2 construct: endogenous in cells
T2 sequence (P49760 whole entry): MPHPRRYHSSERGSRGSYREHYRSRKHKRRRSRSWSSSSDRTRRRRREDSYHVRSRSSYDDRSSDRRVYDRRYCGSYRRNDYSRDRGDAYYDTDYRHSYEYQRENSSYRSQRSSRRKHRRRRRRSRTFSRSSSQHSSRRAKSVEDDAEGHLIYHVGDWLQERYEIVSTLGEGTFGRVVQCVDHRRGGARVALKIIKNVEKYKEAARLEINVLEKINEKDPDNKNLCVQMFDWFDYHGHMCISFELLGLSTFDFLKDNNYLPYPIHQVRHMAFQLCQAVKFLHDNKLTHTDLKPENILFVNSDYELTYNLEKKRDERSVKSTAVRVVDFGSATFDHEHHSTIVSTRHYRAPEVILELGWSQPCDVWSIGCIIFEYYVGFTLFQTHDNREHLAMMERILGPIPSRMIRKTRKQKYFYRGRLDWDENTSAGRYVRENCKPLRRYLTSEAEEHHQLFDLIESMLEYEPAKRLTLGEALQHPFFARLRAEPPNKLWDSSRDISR

[4] = molecular target: T3, endogenous kinases and other proteins enriched by Kinobeads from mixed lysates of K-562, COLO-205, MV-4-11, SK-N-BE(2) and OVCAR-8 (Homo sapiens, UniProt O14578); assay: as above; details: CIT
T3 construct: to maximize the representation of endogenous proteins; endogenous in cells

[5] = molecular target: T4, endogenous kinases and other proteins enriched by Kinobeads from mixed lysates of K-562, COLO-205, MV-4-11, SK-N-BE(2) and OVCAR-8 (Homo sapiens, UniProt Q9UHD2); assay: as above; details: TBK1
T4 construct: endogenous in cells
T4 sequence (Q9UHD2 whole entry): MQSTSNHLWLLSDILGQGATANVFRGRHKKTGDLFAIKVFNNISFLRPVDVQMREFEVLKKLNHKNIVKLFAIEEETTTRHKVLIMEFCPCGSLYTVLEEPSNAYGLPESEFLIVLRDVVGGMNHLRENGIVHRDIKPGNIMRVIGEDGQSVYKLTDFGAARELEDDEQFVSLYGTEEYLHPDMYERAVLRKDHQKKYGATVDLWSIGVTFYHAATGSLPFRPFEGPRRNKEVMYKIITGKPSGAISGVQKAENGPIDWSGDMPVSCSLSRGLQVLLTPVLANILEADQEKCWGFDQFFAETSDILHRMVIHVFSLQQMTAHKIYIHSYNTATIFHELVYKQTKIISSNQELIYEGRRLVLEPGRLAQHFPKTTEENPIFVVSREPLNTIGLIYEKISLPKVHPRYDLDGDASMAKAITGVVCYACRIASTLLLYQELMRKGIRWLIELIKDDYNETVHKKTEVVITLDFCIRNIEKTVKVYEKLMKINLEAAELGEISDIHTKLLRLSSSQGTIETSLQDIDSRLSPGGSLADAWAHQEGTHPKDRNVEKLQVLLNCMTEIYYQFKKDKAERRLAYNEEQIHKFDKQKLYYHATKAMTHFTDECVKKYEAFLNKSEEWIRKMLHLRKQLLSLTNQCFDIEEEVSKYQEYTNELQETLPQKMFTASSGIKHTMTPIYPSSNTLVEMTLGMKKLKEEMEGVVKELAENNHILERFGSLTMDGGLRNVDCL

[6] = tested on: endogenous kinases and other proteins enriched by Kinobeads from mixed lysates of K-562, COLO-205, MV-4-11, SK-N-BE(2) and OVCAR-8; assay: as above; parameters: species or system human
[7] = molecular target: T5, EPHA1 (Homo sapiens, UniProt P21709); assay: Kinobeads two-dose competition binding: EPHA1; details: read-out: Lestaurtinib Drugmatrix value, Gene Name EPHA1
T5 construct: endogenous in cells
T5 sequence (P21709 26-976): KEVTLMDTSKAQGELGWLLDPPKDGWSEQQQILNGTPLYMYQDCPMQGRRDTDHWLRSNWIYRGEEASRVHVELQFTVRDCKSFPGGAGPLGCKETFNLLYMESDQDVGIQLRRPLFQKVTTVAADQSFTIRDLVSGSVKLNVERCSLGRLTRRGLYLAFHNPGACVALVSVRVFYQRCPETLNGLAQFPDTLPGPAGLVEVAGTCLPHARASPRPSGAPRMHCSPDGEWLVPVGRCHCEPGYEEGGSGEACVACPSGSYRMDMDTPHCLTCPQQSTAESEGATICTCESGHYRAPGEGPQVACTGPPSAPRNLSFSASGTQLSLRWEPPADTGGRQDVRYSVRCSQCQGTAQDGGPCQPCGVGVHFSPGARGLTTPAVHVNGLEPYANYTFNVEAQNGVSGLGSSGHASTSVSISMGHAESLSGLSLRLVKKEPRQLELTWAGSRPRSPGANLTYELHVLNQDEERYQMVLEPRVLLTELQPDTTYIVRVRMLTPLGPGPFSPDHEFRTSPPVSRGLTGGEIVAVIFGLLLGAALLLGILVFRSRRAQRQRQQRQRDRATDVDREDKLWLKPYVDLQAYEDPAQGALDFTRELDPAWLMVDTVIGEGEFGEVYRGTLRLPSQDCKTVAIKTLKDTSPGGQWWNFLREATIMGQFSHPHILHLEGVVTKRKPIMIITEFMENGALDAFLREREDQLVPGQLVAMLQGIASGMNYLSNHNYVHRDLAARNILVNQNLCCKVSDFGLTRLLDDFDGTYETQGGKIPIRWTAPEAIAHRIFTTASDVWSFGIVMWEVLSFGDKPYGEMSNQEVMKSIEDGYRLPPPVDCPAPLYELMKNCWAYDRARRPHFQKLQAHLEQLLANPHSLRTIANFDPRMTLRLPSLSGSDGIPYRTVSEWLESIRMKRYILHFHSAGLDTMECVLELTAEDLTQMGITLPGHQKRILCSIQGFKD

[8] = molecular target: T6, AURKB (Homo sapiens, UniProt Q96GD4); assay: Kinobeads two-dose competition binding: AURKB; details: read-out: Lestaurtinib Drugmatrix value, Gene Name AURKB
T6 construct: endogenous in cells
T6 sequence (Q96GD4 whole entry): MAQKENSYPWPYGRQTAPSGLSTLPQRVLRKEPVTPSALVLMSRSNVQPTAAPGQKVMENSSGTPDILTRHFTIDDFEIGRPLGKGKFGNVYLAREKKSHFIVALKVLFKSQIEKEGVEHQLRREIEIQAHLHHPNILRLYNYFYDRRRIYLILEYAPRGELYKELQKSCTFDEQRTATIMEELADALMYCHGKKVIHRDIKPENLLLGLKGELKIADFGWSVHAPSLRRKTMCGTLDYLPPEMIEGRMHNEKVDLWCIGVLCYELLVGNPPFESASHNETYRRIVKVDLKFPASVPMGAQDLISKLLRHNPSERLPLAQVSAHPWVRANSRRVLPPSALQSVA

[9] = molecular target: T7, PIK3CA (Homo sapiens, UniProt P42336); assay: Kinobeads competition binding, Lestaurtinib control replicates: PIK3CA; details: read-out: Lestaurtinib Drugmatrix value; Gene Name PIK3CA; one column per experiment number and replicate (R1-R3)
T7 construct: a mixture of lysates from five cancer cell lines; endogenous in cells
T7 sequence (P42336 whole entry): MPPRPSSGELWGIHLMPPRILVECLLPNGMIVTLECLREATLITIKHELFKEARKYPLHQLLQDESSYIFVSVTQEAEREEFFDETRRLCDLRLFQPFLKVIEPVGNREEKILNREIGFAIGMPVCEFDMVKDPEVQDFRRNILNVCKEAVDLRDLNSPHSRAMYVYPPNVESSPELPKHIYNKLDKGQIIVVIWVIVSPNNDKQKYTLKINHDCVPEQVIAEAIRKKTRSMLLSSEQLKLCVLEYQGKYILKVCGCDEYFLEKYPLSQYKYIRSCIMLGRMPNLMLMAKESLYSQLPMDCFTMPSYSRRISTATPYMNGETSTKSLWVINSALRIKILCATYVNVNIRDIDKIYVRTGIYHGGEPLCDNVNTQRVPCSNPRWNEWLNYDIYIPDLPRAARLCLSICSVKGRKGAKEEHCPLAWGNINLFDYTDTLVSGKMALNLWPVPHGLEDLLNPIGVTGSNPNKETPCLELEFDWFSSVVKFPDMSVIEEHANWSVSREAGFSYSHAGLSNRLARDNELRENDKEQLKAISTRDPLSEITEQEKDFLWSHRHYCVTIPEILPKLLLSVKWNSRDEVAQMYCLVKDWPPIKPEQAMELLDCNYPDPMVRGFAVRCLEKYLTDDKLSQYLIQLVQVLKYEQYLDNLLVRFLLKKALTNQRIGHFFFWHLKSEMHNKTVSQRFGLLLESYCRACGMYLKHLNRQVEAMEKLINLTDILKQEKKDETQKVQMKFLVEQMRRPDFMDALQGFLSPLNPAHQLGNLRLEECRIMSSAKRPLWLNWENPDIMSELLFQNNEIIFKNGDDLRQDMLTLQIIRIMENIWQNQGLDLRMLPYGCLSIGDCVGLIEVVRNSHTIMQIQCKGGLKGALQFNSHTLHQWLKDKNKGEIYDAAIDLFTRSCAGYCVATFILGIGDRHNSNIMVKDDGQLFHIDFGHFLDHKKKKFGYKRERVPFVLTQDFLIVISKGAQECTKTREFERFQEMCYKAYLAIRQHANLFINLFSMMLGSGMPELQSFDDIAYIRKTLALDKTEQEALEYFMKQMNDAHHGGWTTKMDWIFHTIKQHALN
T7 sequence (P27986 whole entry partner): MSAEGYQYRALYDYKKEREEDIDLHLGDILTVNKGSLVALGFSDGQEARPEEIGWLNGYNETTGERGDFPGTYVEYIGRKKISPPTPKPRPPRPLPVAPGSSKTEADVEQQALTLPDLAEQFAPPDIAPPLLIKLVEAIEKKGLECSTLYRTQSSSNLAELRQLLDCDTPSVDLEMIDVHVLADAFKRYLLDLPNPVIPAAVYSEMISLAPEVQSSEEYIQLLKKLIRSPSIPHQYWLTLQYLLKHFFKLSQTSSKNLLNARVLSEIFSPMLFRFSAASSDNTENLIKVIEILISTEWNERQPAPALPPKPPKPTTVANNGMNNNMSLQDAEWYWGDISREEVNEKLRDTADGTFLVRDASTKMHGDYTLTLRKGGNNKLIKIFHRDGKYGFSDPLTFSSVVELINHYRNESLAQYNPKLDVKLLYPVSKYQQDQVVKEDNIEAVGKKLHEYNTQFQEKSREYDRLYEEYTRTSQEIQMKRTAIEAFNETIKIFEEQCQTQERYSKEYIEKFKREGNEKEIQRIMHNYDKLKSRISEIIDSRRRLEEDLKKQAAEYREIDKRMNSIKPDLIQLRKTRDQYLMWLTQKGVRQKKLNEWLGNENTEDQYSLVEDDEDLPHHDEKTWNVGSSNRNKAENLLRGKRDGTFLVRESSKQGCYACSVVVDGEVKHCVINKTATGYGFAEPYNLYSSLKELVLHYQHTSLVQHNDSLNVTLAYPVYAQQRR

[10] = molecular target: T8, PHKG2 (Homo sapiens, UniProt P15735); assay: Kinobeads competition binding, Lestaurtinib control replicates: PHKG2; details: read-out: Lestaurtinib Drugmatrix value; Gene Name PHKG2; one column per experiment number and replicate (R1-R3)
T8 construct: a mixture of lysates from five cancer cell lines; endogenous in cells
T8 sequence (P15735 1-406): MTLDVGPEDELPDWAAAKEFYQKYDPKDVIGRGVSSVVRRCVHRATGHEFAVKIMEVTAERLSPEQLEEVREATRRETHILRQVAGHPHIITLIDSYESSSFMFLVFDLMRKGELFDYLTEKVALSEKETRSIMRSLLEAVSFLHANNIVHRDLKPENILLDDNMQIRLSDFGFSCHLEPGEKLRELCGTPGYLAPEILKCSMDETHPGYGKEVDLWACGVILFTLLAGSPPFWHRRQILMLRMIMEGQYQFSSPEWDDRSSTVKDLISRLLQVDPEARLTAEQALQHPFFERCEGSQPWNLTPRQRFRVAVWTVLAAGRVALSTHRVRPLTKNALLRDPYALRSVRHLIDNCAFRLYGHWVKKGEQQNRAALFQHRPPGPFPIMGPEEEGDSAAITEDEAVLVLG

[11] = molecular target: T9, RIPK2 (Homo sapiens, UniProt O43353); assay: Kinobeads full dose-response competition binding: RIPK2; details: Gene Name RIPK2
T9 construct: endogenous in cells
T9 sequence (O43353 whole entry): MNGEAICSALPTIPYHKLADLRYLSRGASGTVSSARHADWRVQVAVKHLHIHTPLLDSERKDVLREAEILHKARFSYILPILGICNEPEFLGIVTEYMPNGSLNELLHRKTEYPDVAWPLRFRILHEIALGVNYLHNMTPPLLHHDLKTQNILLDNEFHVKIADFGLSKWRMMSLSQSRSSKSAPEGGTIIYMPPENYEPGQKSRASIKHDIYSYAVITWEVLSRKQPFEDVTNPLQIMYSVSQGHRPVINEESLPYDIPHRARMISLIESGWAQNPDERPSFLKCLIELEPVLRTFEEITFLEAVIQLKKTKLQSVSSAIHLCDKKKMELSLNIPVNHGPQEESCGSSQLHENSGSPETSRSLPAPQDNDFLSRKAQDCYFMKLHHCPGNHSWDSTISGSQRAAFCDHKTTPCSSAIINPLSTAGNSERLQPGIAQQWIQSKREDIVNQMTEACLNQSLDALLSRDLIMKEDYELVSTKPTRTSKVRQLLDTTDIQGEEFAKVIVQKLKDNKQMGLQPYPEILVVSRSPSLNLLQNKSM

[12] = molecular target: T10, MAPK14 (Homo sapiens, UniProt Q16539); assay: Kinobeads full dose-response competition binding: MAPK14; details: Gene Name MAPK14
T10 construct: endogenous in cells
T10 sequence (Q16539 whole entry): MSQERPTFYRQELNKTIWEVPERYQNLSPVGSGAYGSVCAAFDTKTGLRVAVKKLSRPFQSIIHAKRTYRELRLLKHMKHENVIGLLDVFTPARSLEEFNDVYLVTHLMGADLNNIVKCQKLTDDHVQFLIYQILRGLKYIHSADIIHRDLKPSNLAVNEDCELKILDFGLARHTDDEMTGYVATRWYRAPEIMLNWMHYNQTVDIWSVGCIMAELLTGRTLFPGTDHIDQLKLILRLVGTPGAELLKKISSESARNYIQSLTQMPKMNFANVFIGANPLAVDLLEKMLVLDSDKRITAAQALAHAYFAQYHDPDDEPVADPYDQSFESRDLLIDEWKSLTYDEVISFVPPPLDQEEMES

[13] = EC50 with Correction, doses in nM, read-out: apparent Kd
[14] = eight-dose curve fit, doses in nM

T1 sequence (P05771 whole entry): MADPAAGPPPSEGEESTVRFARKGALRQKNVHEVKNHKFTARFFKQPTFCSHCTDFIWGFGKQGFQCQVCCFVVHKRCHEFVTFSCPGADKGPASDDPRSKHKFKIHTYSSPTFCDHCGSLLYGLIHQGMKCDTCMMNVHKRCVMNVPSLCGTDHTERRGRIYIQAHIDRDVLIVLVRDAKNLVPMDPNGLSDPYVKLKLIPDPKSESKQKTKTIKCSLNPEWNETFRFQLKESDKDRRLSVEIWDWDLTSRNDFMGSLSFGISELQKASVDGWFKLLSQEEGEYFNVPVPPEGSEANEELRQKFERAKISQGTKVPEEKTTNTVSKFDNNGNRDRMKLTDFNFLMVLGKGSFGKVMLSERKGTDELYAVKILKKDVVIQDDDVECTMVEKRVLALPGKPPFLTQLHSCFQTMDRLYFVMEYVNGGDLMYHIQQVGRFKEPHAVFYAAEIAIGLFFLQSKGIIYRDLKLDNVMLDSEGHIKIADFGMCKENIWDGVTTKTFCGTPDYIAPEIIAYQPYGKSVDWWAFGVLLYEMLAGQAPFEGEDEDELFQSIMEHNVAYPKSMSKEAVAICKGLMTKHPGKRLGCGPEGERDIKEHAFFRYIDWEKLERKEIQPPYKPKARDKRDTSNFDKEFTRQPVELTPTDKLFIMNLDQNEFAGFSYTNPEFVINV

Structure (SMILES): CN(C)C/C=C/C(=O)Nc1cc2c(Nc3ccc(F)c(Cl)c3)ncnc2cc1O[C@H]1CCOC1 [Afatinib]
- Potency value [1]: 0.5 nM, 14 nM

- Relative Intensity 0.3nM ([2]; 0.3nM compound, DMSO = 1): 1.022
- Relative Intensity 1nM ([2]; 1nM compound, DMSO = 1): 1.013
- Relative Intensity 3nM ([2]; 3nM compound, DMSO = 1): 1.059
- Relative Intensity 10nM ([2]; 10nM compound, DMSO = 1): 1.038
- Relative Intensity 30nM ([2]; 30nM compound, DMSO = 1): 0.9653
- Relative Intensity 100nM ([2]; 100nM compound, DMSO = 1): 0.9
- Relative Intensity 300nM ([2]; 300nM compound, DMSO = 1): 0.7943
- Relative Intensity 1000nM ([2]; 1000nM compound, DMSO = 1): 0.5993
- Kd [2, 13]: 401 nM
- EC50 [2, 14]: 410 nM
Structure (SMILES): CCn1c(-c2nonc2N)nc2c(C#CC(C)(C)O)nc(OCCN)cc21 [GSK902056A]

Structure (SMILES): COc1cc(Nc2ncc3c(C)nc(-c4cc5ccccc5[nH]4)n3n2)cc(OC)c1OC [GW869516X]
- Kinobeads Data [3]: no target
- Kinobeads Data [4]: no target
- Kinobeads Data [5]: no target

Structure (SMILES): C[C@]12O[C@H](C[C@]1(O)CO)n1c3ccccc3c3c4c(c5c6ccccc6n2c5c31)CNC4=O [Lestaurtinib]
- number of targets in the Kinobead assay [6]: 76
- potency estimated from few doses [7]: 297 nM
- potency estimated from few doses [8]: 146 nM
- potency estimated from few doses [9]: 156 nM
- potency estimated from few doses [10]: 321 nM

Structure (SMILES): NCc1ccc(-c2nc(-c3ccncc3)c(-c3ccc(Cl)c(O)c3)[nH]2)cc1 [SB-476429-A]
- Relative Intensity 0.3nM ([11]; 0.3nM compound, DMSO = 1): 0.9341
- Relative Intensity 1nM ([11]; 1nM compound, DMSO = 1): 0.8676
- Relative Intensity 3nM ([11]; 3nM compound, DMSO = 1): 0.8459
- Relative Intensity 10nM ([11]; 10nM compound, DMSO = 1): 0.8036
- Relative Intensity 30nM ([11]; 30nM compound, DMSO = 1): 0.6574
- Relative Intensity 100nM ([11]; 100nM compound, DMSO = 1): 0.3411
- Relative Intensity 300nM ([11]; 300nM compound, DMSO = 1): 0.1841
- Relative Intensity 1000nM ([11]; 1000nM compound, DMSO = 1): 0.1065
- Kd [11, 13]: 28.8 nM
- EC50 [11, 14]: 55.9 nM
- Relative Intensity 0.3nM ([12]; 0.3nM compound, DMSO = 1): 1.121
- Relative Intensity 1nM ([12]; 1nM compound, DMSO = 1): 0.9468
- Relative Intensity 3nM ([12]; 3nM compound, DMSO = 1): 1.026
- Relative Intensity 10nM ([12]; 10nM compound, DMSO = 1): 0.8638
- Relative Intensity 30nM ([12]; 30nM compound, DMSO = 1): 0.6876
- Relative Intensity 100nM ([12]; 100nM compound, DMSO = 1): 0.6751
- Relative Intensity 300nM ([12]; 300nM compound, DMSO = 1): 0.325
- Relative Intensity 1000nM ([12]; 1000nM compound, DMSO = 1): 0.2
- Kd [12, 13]: 174 nM
- EC50 [12, 14]: 174 nM
